According to patent US20260042755A1, “GPR6 INVERSE AGONISTS” (MapLight Therapeutics, Inc., priority 2022, published 2026):

Columns and labels:
GPR3 = biological target: T1, GPR3 (Homo sapiens, UniProt P46089); assay: GPR3 antagonist functional cAMP assay (LANCE Ultra cAMP TR-FRET, CHO cells stably expressing GPR3); type: cell-based; settings: procedure of Example 24
T1 construct: expressed in transfected cells; host or cells: CHO cells
Procedure, shortened: (§1)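 Read-out was TR-FRET cAMP signal at 665 nm after 1 h at room temperature, following 45 min compound exposure at 37 °C. Assay buffer contained 0.1% BSA and 150 μM Ro 20-1724. Antagonist IC50s were fitted with a 4-parameter logistic against DMSO and reference controls.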

GPR6 = biological target: T2, GPR6 (Homo sapiens, UniProt P46095); assay: GPR6 antagonist functional cAMP assay (LANCE Ultra cAMP TR-FRET, CHO cells stably expressing GPR6); type: cell-based; settings: procedure of Example 24
T2 construct: expressed in transfected cells; host or cells: CHO cells
Procedure, shortened: as §1

T1 sequence (P46089 whole entry, species assumed): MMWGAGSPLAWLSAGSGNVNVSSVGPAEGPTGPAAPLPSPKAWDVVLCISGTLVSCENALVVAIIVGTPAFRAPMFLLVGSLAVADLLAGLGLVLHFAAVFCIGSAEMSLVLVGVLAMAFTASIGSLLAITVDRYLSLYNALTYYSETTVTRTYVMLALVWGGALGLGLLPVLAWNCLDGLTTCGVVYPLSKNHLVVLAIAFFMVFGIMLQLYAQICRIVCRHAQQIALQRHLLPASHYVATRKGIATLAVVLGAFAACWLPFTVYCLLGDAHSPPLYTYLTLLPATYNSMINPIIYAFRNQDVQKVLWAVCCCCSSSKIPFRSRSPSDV
T2 sequence (P46095 whole entry): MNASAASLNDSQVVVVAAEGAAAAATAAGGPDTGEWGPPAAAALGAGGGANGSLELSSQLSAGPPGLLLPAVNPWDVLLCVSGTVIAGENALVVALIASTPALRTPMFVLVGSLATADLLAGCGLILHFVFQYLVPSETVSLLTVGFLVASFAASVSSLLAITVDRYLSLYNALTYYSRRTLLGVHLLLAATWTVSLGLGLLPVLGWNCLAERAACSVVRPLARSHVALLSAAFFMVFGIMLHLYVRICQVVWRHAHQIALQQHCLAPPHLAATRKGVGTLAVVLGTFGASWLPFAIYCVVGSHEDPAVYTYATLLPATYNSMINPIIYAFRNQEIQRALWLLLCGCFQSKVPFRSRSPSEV

| IC50 (GPR3) [nM] | IC50 (GPR6) [nM] | SMILES |
| --- | --- | --- |
| 100 to 1000 | 100 to 1000 | CC(C)(O)C(=O)N1CCc2nc(N3CCC(Oc4ccc(F)cc4F)CC3)c(-c3ccc(F)c(N)n3)nc2C1 [Compound 639, 1-{3-(6-amino-5-fluoro-2-pyridyl)-2-[4-(2,4-difluorophenoxy)-1-piperidyl]-5,6,7,8-tetrahydro-1,4,6-triaza-6-naphthyl}-2-hydroxy-2-methyl-1-propanone] |
| 100 to 1000 | < 100 | COCC(O)c1cc2nc(-c3cnn(C)c3)c(N3CCC(Oc4ccc(F)cc4F)CC3)nc2cn1 (stereo not drawn) [Compound 644, 1-{3-[4-(2,4-difluorophenoxy)-1-piperidyl]-2-(1-methyl-4-pyrazolyl)-1,4,6-triaza-7-naphthyl}-2-methoxy-1-ethanol] |
| 1000 to 30000 | 100 to 1000 | Cn1cc(-c2nc3cc(C(C)(O)CO)ncc3nc2N2CCC(Oc3ccc(F)cc3F)CC2)cn1 (stereo not drawn) [Compound 645, 2-{3-[4-(2,4-difluorophenoxy)-1-piperidyl]-2-(1-methyl-4-pyrazolyl)-1,4,6-triaza-7-naphthyl}-1,2-propanediol] |
| 1000 to 30000 | 100 to 1000 | CC(=O)N1CCc2nc(N3CCC(=Cc4ccccc4)CC3)c(-c3cnn(C)c3)nc2C1 [Compound 646, 1-[2-(4-benzylidene-1-piperidyl)-3-(1-methyl-4-pyrazolyl)-5,6,7,8-tetrahydro-1,4,6-triaza-6-naphthyl]-1-ethanone] |
| 1000 to 30000 | 100 to 1000 | CCn1cc(-c2nc3cnc(C(=O)C(C)(C)O)cc3nc2N2CCC(Oc3ccc(F)cc3F)CC2)cn1 [Compound 651, 1-{2-[4-(2,4-difluorophenoxy)-1-piperidyl]-3-(1-ethyl-4-pyrazolyl)-1,4,6-triaza-7-naphthyl}-2-hydroxy-2-methyl-1-propanone] |
| 1000 to 30000 | < 100 | COCC(C)(O)c1cc2nc(-c3cnn(C)c3)c(N3CCC(Oc4ccc(F)cc4F)CC3)nc2cn1 (stereo not drawn) [Compound 652, 2-{3-[4-(2,4-difluorophenoxy)-1-piperidyl]-2-(1-methyl-4-pyrazolyl)-1,4,6-triaza-7-naphthyl}-1-methoxy-2-propanol] |
| 1000 to 30000 | 100 to 1000 | CC(C)(O)C(C)(O)c1cc2nc(-c3cnn(C4CC4)c3)c(N3CCN(Cc4ccc(F)cc4F)CC3)nc2cn1 (stereo not drawn) [Compound 653, 2-[2-(1-cyclopropyl-4-pyrazolyl)-3-{4-[(2,4-difluorophenyl)methyl]-1-piperazinyl}-1,4,6-triaza-7-naphthyl]-3-methyl-2,3-butanediol] |
| 1000 to 30000 | 100 to 1000 | CCn1cc(-c2nc3cnc(C(C)(O)C(C)(C)O)cc3nc2N2CCN(Cc3ccc(F)cc3F)CC2)cn1 (stereo not drawn) [Compound 654, 2-(2-{4-[(2,4-difluorophenyl)methyl]-1-piperazinyl}-3-(1-ethyl-4-pyrazolyl)-1,4,6-triaza-7-naphthyl)-3-methyl-2,3-butanediol] |
| 1000 to 30000 | 100 to 1000 | CC(C)(O)C(C)(O)c1cc2nc(N3CCN(Cc4ccc(F)cc4F)CC3)c(-c3cnn(C(F)F)c3)nc2cn1 (stereo not drawn) [Compound 657, 2-{3-[1-(difluoromethyl)-4-pyrazolyl]-2-{4-[(2,4-difluorophenyl)methyl]-1-piperazinyl}-1,4,6-triaza-7-naphthyl}-3-methyl-2,3-butanediol] |
| 1000 to 30000 | 1000 to 30000 | CC(=O)N1CCc2nc(N3CCC4(CC3)CC4c3ccc(F)cc3F)c(-c3cnn(C)c3)nc2C1 (stereo not drawn) [Compound 660, 1-(2-(1-(2,4-difluorophenyl)-6-azaspiro[2.5]octan-6-yl)-3-(1-methyl-1H-pyrazol-4-yl)-7,8-dihydropyrido[3,4-b]pyrazin-6(5H)-yl)ethan-1-one] |
| 1000 to 30000 | 100 to 1000 | CC(C)(O)C(C)(O)c1cc2nc(-c3cnn(CF)c3)c(N3CCC(Oc4ccc(F)cc4F)CC3)nc2cn1 (stereo not drawn) [Compound 661, 2-{3-[4-(2,4-difluorophenoxy)-1-piperidyl]-2-[1-(fluoromethyl)-4-pyrazolyl]-1,4,6-triaza-7-naphthyl}-3-methyl-2,3-butanediol] |
| 1000 to 30000 | < 100 | N#CN1CCc2nc(N3CCC(Oc4ccc(F)cc4F)CC3)c(-c3ccc(F)c(N)n3)nc2C1 [Compound 671, 6-{6-cyano-2-[4-(2,4-difluorophenoxy)-1-piperidyl]-5,6,7,8-tetrahydro-1,4,6-triaza-3-naphthyl}-3-fluoro-2-pyridylamine] |
| 1000 to 30000 | < 100 | CC(C)(O)C(C)(O)c1cc2nc(-c3cnn(C(F)F)c3)c(N3CCC(Oc4ccc(F)cc4F)CC3)nc2cn1 (stereo not drawn) [Compound 674, 2-{2-[1-(difluoromethyl)-4-pyrazolyl]-3-[4-(2,4-difluorophenoxy)-1-piperidyl]-1,4,6-triaza-7-naphthyl}-3-methyl-2,3-butanediol] |
| 1000 to 30000 | 1000 to 30000 | CC(C)(O)C(O)c1cncc2nc(-c3cnn(C(F)F)c3)c(N3CCN(Cc4ccc(F)cc4F)CC3)nc12 (stereo not drawn) [Compound 679, 1-{3-[1-(difluoromethyl)-4-pyrazolyl]-2-{4-[(2,4-difluorophenyl)methyl]-1-piperazinyl}-1,4,6-triaza-8-naphthyl}-2-methyl-1,2-propanediol] |
| 1000 to 30000 | 100 to 1000 | CC(C)(O)[C@](C)(O)c1cc2nc(-c3cnn(C4CC4)c3)c(N3CCN(Cc4ccc(F)cc4F)CC3)nc2cn1 [Compound 683, (R)-2-[2-(1-cyclopropyl-4-pyrazolyl)-3-{4-[(2,4-difluorophenyl)methyl]-1-piperazinyl}-1,4,6-triaza-7-naphthyl]-3-methyl-2,3-butanediol] |
| 1000 to 30000 | 100 to 1000 | CC(C)(O)C(C)(O)c1cc2nc(-c3cnn(C(F)F)c3)c(N3CCN(Cc4ccccc4F)CC3)nc2cn1 (stereo not drawn) [Compound 684, 2-{2-[1-(difluoromethyl)-4-pyrazolyl]-3-{4-[(o-fluorophenyl)methyl]-1-piperazinyl}-1,4,6-triaza-7-naphthyl}-3-methyl-2,3-butanediol] |
| 1000 to 30000 | 100 to 1000 | COCC(O)c1cc2nc(N3CCN(Cc4ccc(F)cc4F)CC3)c(-c3cnn(C(F)F)c3)nc2cn1 (stereo not drawn) [Compound 687, 1-{3-[1-(difluoromethyl)-4-pyrazolyl]-2-{4-[(2,4-difluorophenyl)methyl]-1-piperazinyl}-1,4,6-triaza-7-naphthyl}-2-methoxy-1-ethanol] |
| ≥ 30000 | 1000 to 30000 | CC(C)(O)C(=O)c1cncc2nc(-c3cnn(C(F)F)c3)c(N3CCN(Cc4ccc(F)cc4F)CC3)nc12 [Compound 693, 1-{3-[1-(difluoromethyl)-4-pyrazolyl]-2-{4-[(2,4-difluorophenyl)methyl]-1-piperazinyl}-1,4,6-triaza-8-naphthyl}-2-hydroxy-2-methyl-1-propanone] |
| 1000 to 30000 | 100 to 1000 | Cn1cc(-c2nc3cnc(OCC(C)(C)O)cc3nc2N2CCC(Oc3ccc(F)cc3F)CC2)cn1 [Compound 696, 1-{2-[4-(2,4-difluorophenoxy)-1-piperidyl]-3-(1-methyl-4-pyrazolyl)-1,4,6-triaza-7-naphthyloxy}-2-methyl-2-propanol] |
| 1000 to 30000 | 100 to 1000 | CC(=O)N1CCc2nc(N3CCC(C(F)(F)c4ccc(F)cc4F)CC3)c(-c3cnn(C)c3)nc2C1 [Compound 698, 1-(2-(4-((2,4-difluorophenyl)difluoromethyl)piperidin-1-yl)-3-(1-methyl-1H-pyrazol-4-yl)-7,8-dihydropyrido[3,4-b]pyrazin-6(5H)-yl)ethan-1-one] |
| 1000 to 30000 | 100 to 1000 | CC(=O)N1CCc2nc(N3CCC(O)(Cc4ccc(F)cc4F)CC3)c(-c3cnn(C)c3)nc2C1 [Compound 699, 1-(2-(4-(2,4-difluorobenzyl)-4-hydroxypiperidin-1-yl)-3-(1-methyl-1H-pyrazol-4-yl)-7,8-dihydropyrido[3,4-b]pyrazin-6(5H)-yl)ethan-1-one] |
| 1000 to 30000 | 100 to 1000 | CC(C)(O)Cc1cc2nc(N3CCC(Oc4ccc(F)cc4F)CC3)c(-c3cnn(C(F)F)c3)nc2cn1 [Compound 700, 1-{3-[1-(difluoromethyl)-4-pyrazolyl]-2-[4-(2,4-difluorophenoxy)-1-piperidyl]-1,4,6-triaza-7-naphthyl}-2-methyl-2-propanol] |
| 1000 to 30000 | 1000 to 30000 | COc1ccc(CNc2nc(-c3nc4c(nc3N3CCC(Cc5cc(F)ccc5F)CC3)CCN(C(C)=O)C4)ccc2F)cc1 [Compound 701, 1-(2-{4-[(2,5-difluorophenyl)methyl]-1-piperidyl}-3-(5-fluoro-6-{ [(p-methoxyphenyl)methyl]amino}-2-pyridyl)-5,6,7,8-tetrahydro-1,4,6-triaza-6-naphthyl)-1-ethanone] |
| 100 to 1000 | < 100 | CC(=O)N1CCc2nc(N3CCC(Cc4cc(F)ccc4F)CC3)c(-c3ccc(F)c(N)n3)nc2C1 [Compound 702, 1-[3-(6-amino-5-fluoro-2-pyridyl)-2-{4-[(2,5-difluorophenyl)methyl]-1-piperidyl}-5,6,7,8-tetrahydro-1,4,6-triaza-6-naphthyl]-1-ethanone] |
| 1000 to 30000 | 1000 to 30000 | CC(=O)N1CCc2nc(N3CCC(C(O)c4ccc(F)cc4F)CC3)c(-c3ccc(F)c(N)n3)nc2C1 (stereo not drawn) [Compound 703, 1-[3-(6-amino-5-fluoro-2-pyridyl)-2-{4-[(2,4-difluorophenyl)hydroxymethyl]-1-piperidyl}-5,6,7,8-tetrahydro-1,4,6-triaza-6-naphthyl]-1-ethanone] |
| 1000 to 30000 | 100 to 1000 | CC(C)(O)Cc1cc2nc(-c3cnn(C4CC4)c3)c(N3CCC(Oc4ccc(F)cc4F)CC3)nc2cn1 [Compound 704, 1-{2-(1-cyclopropyl-4-pyrazolyl)-3-[4-(2,4-difluorophenoxy)-1-piperidyl]-1,4,6-triaza-7-naphthyl}-2-methyl-2-propanol] |
| 1000 to 30000 | 100 to 1000 | CC(C)(O)Cc1cc2nc(N3CCC(Oc4ccc(F)cc4F)CC3)c(-c3cnn(C4CC4)c3)nc2cn1 [Compound 705, 1-{3-(1-cyclopropyl-4-pyrazolyl)-2-[4-(2,4-difluorophenoxy)-1-piperidyl]-1,4,6-triaza-7-naphthyl}-2-methyl-2-propanol] |
